Measured values taken from patent US20250163048A1 (Tango Therapeutics, Inc., priority 2022, published 2025).
Like-named read-outs stand apart in the source and are kept apart here.

How the values were obtained:
[1] = test system: HAP1 MTAP-deleted cell line; assay: SDMA in-cell western assay, HAP1 MTAP-deleted; conditions: for Hap1 MTAP intact/deleted ratio: IC50 ratio between HAP1 MTAP-intact and HAP1 MTAP-deleted cell line
[2] = test system: HAP1 MTAP-intact cell line; assay: SDMA in-cell western assay, HAP1 MTAP-intact
MTAP-deleted cell line = assay: viability assay for the MTAP-deleted cell line; assay type: cell-based
[3] = Homo sapiens, HAP1, read-out: Hap1 MTAP deleted IC50, SDMA in-cell western, HAP1 MTAP-deleted cell line
[4] = Homo sapiens, HAP1, read-out: Hap1 MTAP deleted IC90, SDMA in-cell western, HAP1 MTAP-deleted cell line
[5] = Homo sapiens, HAP1, read-out: Hap1 MTAP intact IC50, SDMA in-cell western, HAP1 MTAP-intact cell line
[6] = Homo sapiens, HAP1, viability assay
[7] = Homo sapiens, HAP1, read-out: Hap1 MTAP deleted IC50, SDMA in-cell western assay, HAP1 MTAP-deleted cell line
[8] = Homo sapiens, HAP1, read-out: Hap1 MTAP deleted IC90, SDMA in-cell western assay, HAP1 MTAP-deleted cell line
[9] = Homo sapiens, HAP1, read-out: Hap1 MTAP intact IC50, SDMA in-cell western assay, HAP1 MTAP-intact cell line
[10] = read-out: Hap1 MTAP intact IC50, SDMA in-cell western assay, HAP1 MTAP-intact cell line
[11] = Homo sapiens, HAP1, read-out: Hap1 MTAP intact IC50
[12] = read-out: Hap1 MTAP deleted IC50, SDMA in-cell western assay, HAP1 MTAP-deleted cell line
[13] = read-out: Hap1 MTAP deleted IC90, SDMA in-cell western assay, HAP1 MTAP-deleted cell line
[14] = viability assay, read-out: Hap1 MTAP deleted viability IC50

| SMILES | IC50 [1, 3] [nM] | IC90 [1, 4] [nM] | IC50 [2, 5] [nM] | IC50 [1, 7] [nM] | IC90 [1, 8] [nM] | IC50 [2, 9] [nM] | IC50 [2, 10] [nM] | IC50 [2, 11] [nM] | IC90 [1, 13] [nM] | Hap1 MTAP intact/deleted ratio ([1]; SDMA in-cell western) | IC50 (MTAP-deleted cell line; [6]) [nM] | Hap1 MTAP intact/deleted ratio ([1]; SDMA in-cell western assay) | IC50 [1, 12] [nM] | IC50 (MTAP-deleted cell line; [14]) [nM] |
| --- | --- | --- | --- | --- | --- | --- | --- | --- | --- | --- | --- | --- | --- | --- |
| C[C@H]1CC[C@H](c2ccc3sc([C@H]4CCN(C)C4)nc3c2)N(C(=O)C(=O)Nc2cncc3cn[nH]c23)C1 (single isomer, unassigned) [Compound 30] | < 5 | < 75 | 5 to 50 | – | – | – | – | – | – | B (“B” indicates an IC50 ratio greater than or equal to 15 fold but lower than 30 fold) | < 100 | – | – | – |
| CO[C@H]1C[C@H](c2ccc(F)cc2)N(C(=O)C(=O)Nc2cnc(N)c3cn[nH]c23)C[C@H]1C (single isomer, unassigned) [Compound 38] | > 50 | > 125 | > 50 | – | – | – | – | – | – | C (“C” indicates an IC50 ratio of less than 15 fold) | 100 to 1000 | – | – | – |
| C[C@H]1CC[C@H](c2ccc3sc(C4CCN(C)CC4)nc3c2)N(C(=O)C(=O)Nc2cncc3[nH]ncc23)C1 (single isomer, unassigned) [Compound 43] | < 5 | < 75 | 5 to 50 | – | – | – | – | – | – | C (“C” indicates an IC50 ratio of less than 15 fold) | < 100 | – | – | – |
| C[C@H]1CC[C@H](c2ccc3sc(C4CCN(C)C(=O)C4)nc3c2)N(C(=O)C(=O)Nc2cncc3[nH]ncc23)C1 (single isomer, unassigned) [Compound 73] | 5 to 50 | > 125 | > 50 | – | – | – | – | – | – | A (“A” indicates an IC50 ratio greater than or equal to 30 fold) | 100 to 1000 | – | – | – |
| C[C@@H]1CC[C@@H](c2ccc3sc(CCN(C)C)nc3c2)N(C(=O)C(=O)Nc2cncc3[nH]ncc23)C1 (single isomer, unassigned) [Compound 77, 2-(2-(2-(2-(dimethylamino)ethyl)benzo[d]thiazol-5-yl)-5-methylpiperidin-1-yl)-2-oxo-N-(1H-pyrazolo[3,4-c]pyridin-4-yl)acetamide] | > 50 | > 125 | > 50 | – | – | – | – | – | – | C (“C” indicates an IC50 ratio of less than 15 fold) | > 1000 | – | – | – |
| C[C@H]1CC[C@H](c2cccc(OCCN(C)C)c2)N(C(=O)C(=O)Nc2cncc3cn[nH]c23)C1 (single isomer, unassigned) [Compound 78] | < 5 | < 75 | > 50 | – | – | – | – | – | – | B (“B” indicates an IC50 ratio greater than or equal to 15 fold but lower than 30 fold) | 100 to 1000 | – | – | – |
| C[C@H]1CC[C@H](c2ccc3sc(CCN(C)C)nc3c2)N(C(=O)C(=O)Nc2cncc3[nH]ncc23)C1 (single isomer, unassigned) [Compound 92, 2-(2-(2-(2-(dimethylamino)ethyl)benzo[d]thiazol-5-yl)-5-methylpiperidin-1-yl)-2-oxo-N-(1H-pyrazolo[3,4-c]pyridin-4-yl)acetamide] | < 5 | > 125 | > 50 | – | – | – | – | – | – | B (“B” indicates an IC50 ratio greater than or equal to 15 fold but lower than 30 fold) | < 100 | – | – | – |
| CO[C@@H]1C[C@H](c2ccc(F)cc2)N(C(=O)C(=O)Nc2cnc(N)c3cn[nH]c23)C[C@H]1C (single isomer, unassigned) [Compound 116] | < 5 | < 75 | > 50 | – | – | – | – | – | – | A (“A” indicates an IC50 ratio greater than or equal to 30 fold) | < 100 | – | – | – |
| C[C@H]1CC[C@H](c2ccc3cn([C@@H]4CCN(C)C[C@H]4C)nc3c2)N(C(=O)C(=O)Nc2cncc3cn[nH]c23)C1 (single isomer, unassigned) [Compound 159] | < 5 | < 75 | > 50 | – | – | – | – | – | – | B (“B” indicates an IC50 ratio greater than or equal to 15 fold but lower than 30 fold) | < 100 | – | – | – |
| C[C@H]1CC[C@H](c2ccc3sc([C@@H](C)N(C)C)nc3c2)N(C(=O)C(=O)Nc2cncc3cn[nH]c23)C1 (single isomer, unassigned) [Compound 167] | 5 to 50 | < 75 | > 50 | – | – | – | – | – | – | A (“A” indicates an IC50 ratio greater than or equal to 30 fold) | < 100 | – | – | – |
| CC1OCc2c(NC(=O)C(=O)N3C[C@@H](C)CC[C@@H]3c3ccc4scnc4c3)cnc(N)c21 (single isomer, unassigned) [Compound 287] | – | – | – | – | < 75 | – | – | > 50 | – | – | – | B (“B” indicates an IC50 ratio greater than or equal to 15 fold but lower than 30 fold) | < 5 | < 100 |
| CC1OCc2c(NC(=O)C(=O)N3C[C@@H](C)CC[C@@H]3c3ccc4scnc4c3)cnc(N)c21 (single isomer, unassigned) [Compound 288] | – | – | – | – | – | – | > 50 | – | > 125 | – | – | B (“B” indicates an IC50 ratio greater than or equal to 15 fold but lower than 30 fold) | > 50 | > 1000 |
| Nc1ncc(NC(=O)C(=O)N2CCCC[C@@H]2C2CCCC2)c2[nH]ncc12 (stereo in doubt) [Compound 127, N-(4-amino-1H-pyrazolo[4,3-c]pyridin-7-yl)-2-(2-cyclopentylpiperidin-1-yl)-2-oxoacetamide] | < 5 | < 75 | > 50 | – | – | – | – | – | – | A (“A” indicates an IC50 ratio greater than or equal to 30 fold) | < 100 | – | – | – |

Further lines, with some results ahead:

| IC50 [1, 3] [nM] | IC90 [1, 4] [nM] | IC50 [2, 5] [nM] | IC50 [1, 7] [nM] | IC90 [1, 8] [nM] | IC50 [2, 9] [nM] | IC50 [2, 10] [nM] | IC50 [2, 11] [nM] | IC90 [1, 13] [nM] | SMILES | Hap1 MTAP intact/deleted ratio ([1]; SDMA in-cell western) | IC50 (MTAP-deleted cell line; [6]) [nM] | Hap1 MTAP intact/deleted ratio ([1]; SDMA in-cell western assay) | IC50 [1, 12] [nM] | IC50 (MTAP-deleted cell line; [14]) [nM] |
| --- | --- | --- | --- | --- | --- | --- | --- | --- | --- | --- | --- | --- | --- | --- |
| < 5 | < 75 | > 50 | – | – | – | – | – | – | C[C@@H]1C[C@@H](c2nc3cc([C@H]4CC[C@H](C)CN4C(=O)C(=O)Nc4cncc5cn[nH]c45)ccc3s2)CN(C)C1 (single isomer, unassigned) [Compound 171] | B (“B” indicates an IC50 ratio greater than or equal to 15 fold but lower than 30 fold) | < 100 | – | – | – |
| – | – | – | > 50 | > 125 | > 50 | – | – | – | CC1OCc2c(NC(=O)C(=O)N3C[C@@H](C)CC[C@@H]3c3ccccc3)cnc(N)c21 (single isomer, unassigned) [Compound 204] | – | > 1000 | C (“C” indicates an IC50 ratio of less than 15 fold) | – | – |
| – | – | – | 5 to 50 | > 125 | > 50 | – | – | – | Nc1ncc(NC(=O)C(=O)N2CCCCC2c2cccc(N3CCCC3)c2)c2[nH]ncc12 (single isomer, unassigned) [Compound 213] | – | 100 to 1000 | A (“A” indicates an IC50 ratio greater than or equal to 30 fold) | – | – |
| – | – | – | < 5 | < 75 | > 50 | – | – | – | C[C@H]1CC[C@H](C2CCCCO2)N(C(=O)C(=O)Nc2cnc(N)c3cn[nH]c23)C1 (single isomer, unassigned) [Compound 232] | – | < 100 | A (“A” indicates an IC50 ratio greater than or equal to 30 fold) | – | – |
| – | – | – | < 5 | > 125 | > 50 | – | – | – | C[C@H]1CC[C@H]([C@@H]2CCOC2)N(C(=O)C(=O)Nc2cnc(N)c3cn[nH]c23)C1 (single isomer, unassigned) [Compound 237] | – | 100 to 1000 | A (“A” indicates an IC50 ratio greater than or equal to 30 fold) | – | – |
| – | – | – | < 5 | < 75 | 5 to 50 | – | – | – | CCN(C)c1cccc(C2CCCCN2C(=O)C(=O)Nc2cnc(N)c3cn[nH]c23)c1 (single isomer, unassigned) [Compound 251] | – | < 100 | B (“B” indicates an IC50 ratio greater than or equal to 15 fold but lower than 30 fold) | – | – |
| – | – | – | 5 to 50 | > 125 | – | > 50 | – | – | CN(C)c1cccc(C2CCCCN2C(=O)C(=O)Nc2cnc(N)c3cn[nH]c23)c1 (single isomer, unassigned) [Compound 256] | – | 100 to 1000 | A (“A” indicates an IC50 ratio greater than or equal to 30 fold) | – | – |
| – | – | – | < 5 | < 75 | – | – | 5 to 50 | – | [2H]c1c([2H])c([2H])c([C@H]2CC[C@H](C)CN2C(=O)C(=O)Nc2cnc(N)c3cn[nH]c23)c([2H])c1[2H] (single isomer, unassigned) [Compound 268] | – | < 100 | – | – | – |
| – | – | – | – | – | – | > 50 | – | < 75 | Nc1ncc(NC(=O)C(=O)N2CCCCC2c2cccc(N3CCCC3)c2)c2[nH]ncc12 (single isomer, unassigned) [Compound 271] | – | – | A (“A” indicates an IC50 ratio greater than or equal to 30 fold) | < 5 | < 100 |
| – | – | – | – | – | – | 5 to 50 | – | < 75 | CN(C)c1cccc(C2CCCCN2C(=O)C(=O)Nc2cnc(N)c3cn[nH]c23)c1 (single isomer, unassigned) [Compound 283] | – | – | A (“A” indicates an IC50 ratio greater than or equal to 30 fold) | < 5 | < 100 |
| – | – | – | 5 to 50 | > 125 | – | – | > 50 | – | [2H]c1c([2H])c([2H])c([C@@H]2CC[C@H](C)CN2C(=O)C(=O)Nc2cnc(N)c3cn[nH]c23)c([2H])c1[2H] (single isomer, unassigned) [Compound 286] | – | 100 to 1000 | – | – | – |
